This note sets out measurements from patent US10434199B2, “Picolinate cross-bridged cyclams, chelates with metallic cations and use thereof” (UNIVERSITÉ DE BRETAGNE OCCIDENTALE, priority 2013, dated 2019).

SMILES strings stand for the structures. Some results are limits rather than exact numbers.

Holding throughout (type): physicochemical
Series [1] in a line: Copper(II) complex formation kinetics (UV-vis, buffered aqueous solutions). The following applies: for time to completion (>99%) of copper(II) complex formation: 25° C. The procedure: Complex Formation. The formation of the copper(II) complex of Hcb-te1pa was studied in buffered aqueous solutions at 25° C. The increasing intensity of the complex d-d transition band in the visible range (600 nm) was followed at pH=5.0 (0.2 M potassium acetate buffer) and pH=7.4 (0.2 M HEPES buffer), with [Cu^2+]=[Hcb-te1pa]=0.8 mM. Additionally, complex formation was also studied at pH=3.0 (0.2 M (K,H)Cl) under pseudo-first order conditions, by following the increasing charge transfer band in the UV range (at 310 nm) at [Cu^2+]=10×[Hcb-te1pa]=2 mM.
The copper(II) complex formation with Hcb-te1pa was spectroscopically monitored in different buffered solutions from acidic to neutral pH. […] The reaction becomes progressively slower because of the increase of the acidity of the reaction media, enabling a kinetic study under pseudo-first order conditions using conventional UV-vis spectroscopic methods. In this work such kinetic study was performed at pH=3, which is at the lower limit of the pH range in which the copper(II) complexation is approximately complete under equilibrium in equimolar metal-to-ligand conditions.

A short description of series [2]: Potentiometric titrations: protonation constants of the ligands. The following applies: 25.0° C., 0.10M KNO3. The procedure: Equipment and work conditions. The potentiometric setup has been described in Roger, M. et al. Inorg. Chem. 2013, 52, 5246-5259. The titrant was a KOH solution prepared at ca. 0.1 M from a commercial ampoule of analytical grade, and its accurate concentration was obtained by application of the Gran's method upon titration of a standard HNO3 solution (Rossotti, F. J. and Rossotti, H. J. J. Chem. Educ. 1965, 42, 375-378). Ligand solutions were prepared at about 2.0×10^−3 M, and the Cu^2+ and Zn^2+ solutions at ca. 0.05 M from analytical grade nitrate salts and standardized by complexometric titrations with H4edta (ethylenediaminetetraacetic acid). Sample solutions for titration contained approximately 0.04 mmol of ligand in a volume of 30 mL where the ionic strength was kept at 0.10 M using KNO3 as background electrolyte. Metal cations were added at 0.9 equiv. of the ligand amount in complexation titrations. Batch titrations were prepared in a similar way but with each titration point corresponding to 1/10 of the amount of a conventional titration sample. Batch titration points were incubated in tightly closed vials at 25° C. until potential measurements attained complete stability, which happened within a week.
Measurements. All measurements were carried out at 25.0±0.1° C. under inert atmosphere. The electromotive force of the sample solutions was measured after calibration of the electrodes by titration of a standard HNO3 solution at 2.0×10^−3 M in the work conditions. The [H^+] of the solutions was determined by measurement of the electromotive force of the cell, E=E^o′+Q log [H^+]+Ej. The term pH is defined as −log [H^+]. E^o′ and Q were determined from the acid region of the calibration curves. Deviations from the Nernst law at very low pH (pH<2.5) were corrected with the VLpH software (Calibration software from the maker of Hyperquad available for free at http://www.hyperquad.co.uk/), which performs a [H^+] correction based on a very low pH calibration procedure. The liquid-junction potential, Ej, was otherwise found to be negligible for pH >2.5 under the experimental conditions used. […] Each titration consisted of 80-100 equilibrium points in the range of pH 2.5-11.5 (or 1.5-11.5 for Cu^2+ complexations), and at least two replicate titrations were performed for each particular system.
Calculations. […] The errors quoted are the standard deviations calculated by the fitting program from all the experimental data for each system.
The protonation constants of Hcb-te1pa were studied in aqueous solution at 25.0° C. The compound has five basic centers consisting of the four amines and the carboxylate function, from which only two could be accurately determined by potentiometric titrations (Table 1). […]

Series [3] can be described thus: Cyclic voltammetry of the copper(II) complexes. The following applies: overview table. The procedure:
Cyclic voltammograms were measured using Autolab equipment at room temperature. All measurements were made using a three-electrode system: a glassy-carbon electrode as a working electrode, a platinum wire as a counter-electrode, and a saturated calomel reference electrode. All electrochemical experiments were performed in ca. 1 mM aqueous solutions of preformed complex under a N2 atmosphere containing 0.1 M NaClO4 as the supporting electrolyte. From the initial potential of the analysis (0 V), the voltage was ramped to −1.3 V, then to 0.2 V, and back to 0 V at a scan rate of 100 mV/s. All potentials are expressed relative to the saturated calomel electrode (SCE) except otherwise noted.
One of the explanations for the dissociation of copper(II) complexes of macrocyclic ligands in biological media is the metal reduction to copper(I) followed by the demetallation of the complex. It is thus important to ensure the electrochemical inertness as well as the reversibility of the redox system. To determine the redox behavior of the copper complex of Hcb-te1pa, cyclic voltammetry experiments were performed in aqueous solution at pH values of 2.3 and 6.8. The experiments were carried out with a glassy-carbon working electrode in solutions containing 0.1 M NaClO4 as supporting electrolyte.

Consider `O=C(O)c1cccc(CN2CCCN3CCNCCCN(CC3)CC2)n1` [Hcb-te1pa, 6-(1,4,8,11-tetraazabicyclo[6.6.2]hexadecan-4-ylmethyl)picolinic acid], for which the “a) metallation kinetics: time required for complete (>99%) Cu complexation” value in series [1] (overview table) stood at 3 min. In addition, the “time to quantitative (>99%) formation of copper(II) complex” value in series [1] (pH=3, pseudo-first order, excess of 10 equivalents of metal cation) is at most 10 min. Besides, the “time to completion (>99%) of copper(II) complex formation” value in series [1] (pH=5, equimolar metal-to-ligand ratio) was at most 3 min. For the same compound, the “time to completion (>99%) of copper(II) complex formation” value in series [1] (physiological pH (7.4), equimolar metal-to-ligand ratio) was “within a few seconds”. For the same compound, the copper chelated immediately result in series [1] (remaining copper chelated within a few seconds) is listed as “more than 90%”. In series [2], the “log βi^H, L + 2 H^+ ⇌ H2L” value was 25.13(5) log units; the “log βi^H, L + 3 H^+ ⇌ H3L” value is on record as 27.56(5) log units; the “log βi^H, L + 4 H^+ ⇌ H4L” value was under 29.56 log units; the “log βi^H, L + H^+ ⇌ HL” value was over 15 log units. In addition, in series [3], the “e) stability upon reduction, Cu(II) -> Cu (I): reduction potential” value is −0.696 V and the “e) stability upon reduction, Cu(II) -> Cu (I): reversibility” value is listed as “reversible”.
